Results reported in patent publication US10988477B2 (Merck Patent GmbH, priority 2018, dated 2021).
pIC50, pKi: −log10 of the molar value.

Key:
GCN2 kinase = GCN2 kinase (Homo sapiens, UniProt Q9P2K8); test: GCN2 enzyme inhibition assay (Transcreener ADP2 fluorescence polarization); assay type: biochemical; details: Enzyme activity for compounds of Formula IV; Ki(app), 280 μM ATP, 25° C.
Method in brief: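 4 nM GCN2 + 200 μM (RS)7 + compound (0–8 μM), 10 min preinc.; start with ATP (280 μM final); 1 h, 25 °C; pH 7.5 Tris/NaCl/MgCl2/DTT; ADP FP readout; IC50, Ki(app) via tight-binding fit.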

[1] = molecular target: intracellular GCN2 (phosphorylation of the GCN2 substrate eIF2α) (Homo sapiens, UniProt Q9P2K8); test: GCN2 cellular inhibition assay (AlphaScreen SureFire P-eIF2α Ser51, borrelidin-treated U2OS cells); assay type: cell-based; details: compounds of Formula IV; biomarker assay, phosphorylated eIF2α Ser51 in borrelidin-treated U2OS cells
Method in brief: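 First, U2OS cells are plated and left overnight at 37 °C. Next, compounds (from 40 μM final, 4-fold steps) and 10 μM borrelidin are added for 1 h, cells lysed, and phospho-Ser51 eIF2α detected by AlphaScreen bead sandwich. Inhibition is computed versus borrelidin-only wells.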

Chain of intracellular GCN2 (phosphorylation of the GCN2 substrate eIF2α) (Q9P2K8 whole entry): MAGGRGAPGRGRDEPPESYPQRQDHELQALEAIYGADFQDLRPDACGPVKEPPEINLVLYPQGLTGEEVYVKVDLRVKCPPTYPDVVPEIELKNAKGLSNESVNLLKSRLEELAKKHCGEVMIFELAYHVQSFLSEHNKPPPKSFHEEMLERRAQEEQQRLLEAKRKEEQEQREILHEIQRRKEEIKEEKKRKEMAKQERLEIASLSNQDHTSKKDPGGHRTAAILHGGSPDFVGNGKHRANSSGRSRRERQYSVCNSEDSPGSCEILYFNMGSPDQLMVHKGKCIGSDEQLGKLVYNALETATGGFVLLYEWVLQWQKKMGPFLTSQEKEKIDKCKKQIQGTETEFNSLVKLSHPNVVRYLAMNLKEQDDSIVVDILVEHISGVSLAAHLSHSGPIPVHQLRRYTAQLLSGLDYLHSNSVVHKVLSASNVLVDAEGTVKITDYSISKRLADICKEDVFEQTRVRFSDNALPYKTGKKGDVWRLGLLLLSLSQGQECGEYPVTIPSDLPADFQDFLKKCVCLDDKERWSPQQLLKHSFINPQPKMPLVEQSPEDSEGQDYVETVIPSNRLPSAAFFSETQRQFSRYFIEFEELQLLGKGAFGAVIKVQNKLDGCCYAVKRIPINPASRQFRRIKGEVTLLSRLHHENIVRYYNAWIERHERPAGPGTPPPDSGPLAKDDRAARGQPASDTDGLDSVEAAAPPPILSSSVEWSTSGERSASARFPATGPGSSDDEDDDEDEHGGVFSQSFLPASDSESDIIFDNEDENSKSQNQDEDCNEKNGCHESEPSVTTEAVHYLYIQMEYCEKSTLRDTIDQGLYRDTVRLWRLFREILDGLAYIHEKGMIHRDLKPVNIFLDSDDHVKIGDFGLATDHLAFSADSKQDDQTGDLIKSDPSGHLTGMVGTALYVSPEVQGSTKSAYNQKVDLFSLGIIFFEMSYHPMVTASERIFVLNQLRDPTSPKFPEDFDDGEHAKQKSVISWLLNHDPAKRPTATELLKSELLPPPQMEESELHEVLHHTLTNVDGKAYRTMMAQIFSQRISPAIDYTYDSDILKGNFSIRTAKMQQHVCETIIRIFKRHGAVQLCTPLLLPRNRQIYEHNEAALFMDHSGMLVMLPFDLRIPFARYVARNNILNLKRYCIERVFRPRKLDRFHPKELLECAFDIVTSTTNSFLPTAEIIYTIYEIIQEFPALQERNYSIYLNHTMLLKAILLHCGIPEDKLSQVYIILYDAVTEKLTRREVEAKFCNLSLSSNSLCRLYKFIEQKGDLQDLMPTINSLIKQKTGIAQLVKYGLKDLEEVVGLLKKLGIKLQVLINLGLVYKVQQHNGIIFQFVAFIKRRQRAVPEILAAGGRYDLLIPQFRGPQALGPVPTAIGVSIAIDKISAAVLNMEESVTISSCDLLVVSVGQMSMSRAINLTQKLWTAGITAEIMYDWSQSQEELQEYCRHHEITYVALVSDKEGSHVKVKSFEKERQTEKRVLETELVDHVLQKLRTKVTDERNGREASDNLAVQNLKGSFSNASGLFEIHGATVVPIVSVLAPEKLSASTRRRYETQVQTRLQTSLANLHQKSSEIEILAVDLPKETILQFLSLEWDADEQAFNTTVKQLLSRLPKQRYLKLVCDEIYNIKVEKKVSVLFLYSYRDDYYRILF
Chain of GCN2 kinase (Q9P2K8 whole entry): as above

SMILES | pKi (GCN2 kinase) | pIC50 [1]
CS(=O)(=O)Nc1cccc(-c2ccnc(-c3cnc4cnc(C(F)F)cn34)n2)c1 [IV-147, N-(3-(2-(6-(Difluoromethyl)imidazo[1,2-a]pyrazin-3-yl)pyrimidin-4-yl)phenyl)methanesulfonamide] | 6.00 to 7.00 | < 5.30
NCS(=O)(=O)c1cccc(-c2ccnc(-c3cnc4cnc(C(F)F)cn34)n2)c1 [IV-148, ((3-(2-(6-(Difluoromethyl)imidazo[1,2-a]pyrazin-3-yl)pyrimidin-4-yl)phenyl)sulfonyl)methanamine] | 6.00 to 7.00 | < 5.30
O=C(c1cccc(-c2ccnc(-c3cnc4cnc(C(F)F)cn34)n2)c1)N1CCNCC1 [IV-150, (3-(2-(6-(Difluoromethyl)imidazo[1,2-a]pyrazin-3-yl)pyrimidin-4-yl)phenyl)(piperazin-1-yl)methanone] | 6.00 to 7.00 | < 5.30
CS(=O)(=O)NCC1CCCN(c2ccnc(-c3cnc4cnc(C(F)F)cn34)n2)C1 (centres unmarked) [IV-152, N-((1-(2-(6-(Difluoromethyl)imidazo[1,2-a]pyrazin-3-yl)pyrimidin-4-yl)piperidin-3-yl)methyl)methanesulfonamide] | 6.00 to 7.00 | < 5.30
CCn1cc(-c2ccnc(-c3cnc4cnc(C(F)F)cn34)n2)cn1 [IV-154, 6-(Difluoromethyl)-3-(4-(1-ethyl-1H-pyrazol-4-yl)pyrimidin-2-yl)imidazo[1,2-a]pyrazine] | 6.00 to 7.00 | < 5.30
NC(=O)Cc1cccc(-c2ccnc(-c3cnc4cnc(C(F)F)cn34)n2)c1 [IV-155, 2-(3-(2-(6-(Difluoromethyl)imidazo[1,2-a]pyrazin-3-yl)pyrimidin-4-yl)phenyl)acetamide] | 6.00 to 7.00 | < 5.30
CC(=O)N1CC=C(c2ccnc(-c3cnc4cnc(C(F)F)cn34)n2)CC1 [IV-156, 1-(4-(2-(6-(Difluoromethyl)imidazo[1,2-a]pyrazin-3-yl)pyrimidin-4-yl)-3,6-dihydropyridin-1(2H)-yl)ethan-1-one] | 6.00 to 7.00 | < 5.30
N#CCc1cccc(-c2ccnc(-c3cnc4cnc(C(F)F)cn34)n2)c1 [IV-157, 2-(3-(2-(6-(Difluoromethyl)imidazo[1,2-a]pyrazin-3-yl)pyrimidin-4-yl)phenyl)acetonitrile] | 6.00 to 7.00 | < 5.30
NCc1cccc(-c2ccnc(-c3cnc4cnc(C(F)F)cn34)n2)c1 [IV-159, (3-(2-(6-(Difluoromethyl)imidazo[1,2-a]pyrazin-3-yl)pyrimidin-4-yl)phenyl)methanamine] | 6.00 to 7.00 | < 5.30
Oc1cccc(-c2ccnc(-c3cnc4cnc(C(F)F)cn34)n2)c1 [IV-161, 3-(2-(6-(Difluoromethyl)imidazo[1,2-a]pyrazin-3-yl)pyrimidin-4-yl)phenol] | 6.00 to 7.00 | < 5.30
OCc1cccc(-c2ccnc(-c3cnc4cnc(C(F)F)cn34)n2)c1 [IV-162, (3-(2-(6-(Difluoromethyl)imidazo[1,2-a]pyrazin-3-yl)pyrimidin-4-yl)phenyl)methanol] | 6.00 to 7.00 | < 5.30
CNS(=O)(=O)C1CCCN(c2ccnc(-c3cnc4cnc(C(F)F)cn34)n2)C1 (centres unmarked) [IV-164, 1-(2-(6-(Difluoromethyl)imidazo[1,2-a]pyrazin-3-yl)pyrimidin-4-yl)-N-methylpiperidine-3-sulfonamide] | 6.00 to 7.00 | < 5.30
CS(=O)(=O)C1CCCN(c2ccnc(-c3cnc4cnc(C(F)F)cn34)n2)C1 (centres unmarked) [IV-165, 6-(Difluoromethyl)-3-(4-(3-(methylsulfonyl)piperidin-1-yl)pyrimidin-2-yl)imidazo[1,2-a]pyrazine] | 6.00 to 7.00 | < 5.30
CN1CCN(Cc2cccc(-c3ccnc(-c4cnc5cnc(C(F)F)cn45)n3)c2)CC1 [IV-166, 6-(Difluoromethyl)-3-(4-(3-((4-methylpiperazin-1-yl)methyl)phenyl)pyrimidin-2-yl)imidazo[1,2-a]pyrazine] | 6.00 to 7.00 | < 5.30
NCC(=O)Nc1cccc(-c2ccnc(-c3cnc4cnc(C(F)F)cn34)n2)c1 [IV-167, 2-Amino-N-(3-(2-(6-(difluoromethyl)imidazo[1,2-a]pyrazin-3-yl)pyrimidin-4-yl)phenyl)acetamide] | 6.00 to 7.00 | < 5.30
CN(C1CCCN(c2ccnc(-c3cnc4cnc(C(F)F)cn34)n2)C1)S(C)(=O)=O (centres unmarked) [IV-168, N-(1-(2-(6-(Difluoromethyl)imidazo[1,2-a]pyrazin-3-yl)pyrimidin-4-yl)piperidin-3-yl)-N-methylmethanesulfonamide] | 6.00 to 7.00 | < 5.30
CS(=O)(=O)NC1CCCN(c2ccnc(-c3cnc4cnc(C(F)F)cn34)n2)C1 (centres unmarked) [IV-169, N-(1-(2-(6-(Difluoromethyl)imidazo[1,2-a]pyrazin-3-yl)pyrimidin-4-yl)piperidin-3-yl)methanesulfonamide] | 6.00 to 7.00 | < 5.30

SMILES | pKi (GCN2 kinase) | pIC50 [1]
CN(C)S(=O)(=O)C1CCCN(c2ccnc(-c3cnc4cnc(C(F)F)cn34)n2)C1 (centres unmarked) [IV-170, 1-(2-(6-(Difluoromethyl)imidazo[1,2-a]pyrazin-3-yl)pyrimidin-4-yl)-N,N-dimethylpiperidine-3-sulfonamide] | 6.00 to 7.00 | < 5.30
O=S(=O)(NC1CCCC1)C1CCCN(c2ccnc(-c3cnc4cnc(C(F)F)cn34)n2)C1 (centres unmarked) [IV-171, N-Cyclopentyl-1-(2-(6-(difluoromethyl)imidazo[1,2-a]pyrazin-3-yl)pyrimidin-4-yl)piperidine-3-sulfonamide] | 6.00 to 7.00 | < 5.30
O=S(=O)(C1CCCN(c2ccnc(-c3cnc4cnc(C(F)F)cn34)n2)C1)N1CCOCC1 (centres unmarked) [IV-172, 4-((1-(2-(6-(Difluoromethyl)imidazo[1,2-a]pyrazin-3-yl)pyrimidin-4-yl)piperidin-3-yl)sulfonyl)morpholine] | 6.00 to 7.00 | < 5.30
FC(F)c1cn2c(-c3nccc(N4CCCC(c5cscn5)C4)n3)cnc2cn1 (centres unmarked) [IV-174, 4-(1-(2-(6-(Difluoromethyl)imidazo[1,2-a]pyrazin-3-yl)pyrimidin-4-yl)piperidin-3-yl)thiazole] | 6.00 to 7.00 | < 5.30
OCc1ccc(-c2ccnc(-c3cnc4cnc(C(F)F)cn34)n2)s1 [IV-175, (5-(2-(6-(Difluoromethyl)imidazo[1,2-a]pyrazin-3-yl)pyrimidin-4-yl)thiophen-2-yl)methanol] | 6.00 to 7.00 | < 5.30
NC(=O)c1ccc(F)c(-c2ccnc(-c3cnc4cnc(C(F)F)cn34)n2)c1 [IV-176, 3-(2-(6-(Difluoromethyl)imidazo[1,2-a]pyrazin-3-yl)pyrimidin-4-yl)-4-fluorobenzamide] | 6.00 to 7.00 | < 5.30
NS(=O)(=O)C1CCCN(c2ccnc(-c3cnc4cnc(C(F)F)cn34)n2)C1 (centres unmarked) [IV-177, 1-(2-(6-(Difluoromethyl)imidazo[1,2-a]pyrazin-3-yl)pyrimidin-4-yl)piperidine-3-sulfonamide] | 6.00 to 7.00 | < 5.30
NS(=O)(=O)N[C@H]1CCCN(c2ccnc(-c3cnc4cnc(C(F)F)cn34)n2)C1 [IV-179, 6-(Difluoromethyl)-3-[4-[(3S)-3-(sulfamoylamino)-1-piperidyl]pyrimidin-2-yl]imidazo[1,2-a]pyrazine] | 6.00 to 7.00 | < 5.30
NS(=O)(=O)N[C@@H]1CCCN(c2ccnc(-c3cnc4cnc(C(F)F)cn34)n2)C1 [IV-181, 6-(Difluoromethyl)-3-[4-[(3R)-3-(sulfamoylamino)-1-piperidyl]pyrimidin-2-yl]imidazo[1,2-a]pyrazine] | 6.00 to 7.00 | < 5.30
CC(=O)N1CCN(c2nccc(-c3cnc4cnc(C(N)=O)cn34)n2)CC1 [IV-182, 3-(2-(4-Acetylpiperazin-1-yl)pyrimidin-4-yl)imidazo[1,2-a]pyrazine-6-carboxamide] | 7.00 to 8.00 | 5.30 to 6.30
CC(=O)N1CCN(c2cncc(-c3cnc4cnc(C(N)=O)cn34)n2)CC1 [IV-183, 3-(6-(4-Acetylpiperazin-1-yl)pyrazin-2-yl)imidazo[1,2-a]pyrazine-6-carboxamide] | 6.00 to 7.00 | < 5.30
CC(=O)N1CCN(c2cccc(-c3cnc4cnc(C(N)=O)cn34)n2)CC1 [IV-184, 3-(6-(4-Acetylpiperazin-1-yl)pyridin-2-yl)imidazo[1,2-a]pyrazine-6-carboxamide] | 7.00 to 8.00 | > 6.30
CC1CN(c2ccnc(-c3cnc4cnc(C(F)(F)F)cn34)n2)CC(c2cn[nH]c2)N1 (centres unmarked) [IV-189, 3-(4-(3-Methyl-5-(1H-pyrazol-4-yl)piperazin-1-yl)pyrimidin-2-yl)-6-(trifluoromethyl)imidazo[1,2-a]pyrazine] | 7.00 to 8.00 | 5.30 to 6.30
CC1CN(c2ccnc(-c3cnc4cnc(Cl)cn34)n2)CC(c2cn[nH]c2)O1 (centres unmarked) [IV-193, 4-(2-(6-Chloroimidazo[1,2-a]pyrazin-3-yl)pyrimidin-4-yl)-2-methyl-6-(1H-pyrazol-4-yl)morpholine] | > 8.00 | > 6.30
CC1CN(c2ccnc(-c3cnc4cnc(C#N)cn34)n2)CC(c2cn[nH]c2)O1 (centres unmarked) [IV-194, 3-(4-(2-Methyl-6-(1H-pyrazol-4-yl)morpholino)pyrimidin-2-yl)imidazo[1,2-a]pyrazine-6-carbonitrile] | > 8.00 | > 6.30
CC1CN(c2ccnc(-c3cnc4cnc(C(F)(F)F)cn34)n2)CC(c2cn[nH]c2)N1C (centres unmarked) [IV-195, 3-(4-(3,4-Dimethyl-5-(1H-pyrazol-4-yl)piperazin-1-yl)pyrimidin-2-yl)-6-(trifluoromethyl)imidazo[1,2-a]pyrazine] | 7.00 to 8.00 | 5.30 to 6.30
NC(=O)c1cn2c(-c3cccc(N4CCCCC4)n3)cnc2cn1 [IV-204, 3-(6-(Piperidin-1-yl)pyridin-2-yl)imidazo[1,2-a]pyrazine-6-carboxamide] | 7.00 to 8.00 | < 5.30
